For this experiment, the system named is S. aureus D48. Kind of experiment: effect on membrane potential difference, DiSC2(5) fluorescent probe. Format: cell-based, Staphylococcus aureus. Particulars: bacteriocin 1×MIC; Triton X-100 5% solution as positive control; scanning time 15 min. The protocol: S. aureus D48 cells were prepared by the same method as that in Example 3, washed with a 5 mM fluorescent leakage buffer and resuspended to 5 mL to obtain a bacterial suspension. A fluorescent probe DiSC2(5) was set to have an excitation wavelength of 650 nm and an emission wavelength of 670 nm. The scanning interval was set as Ex slit: 5 nm, Em slit: 5 nm, and the scanning time was 15 min. 2 mL of the fluorescent leakage buffer, 20 μL of the bacterial suspension, and 3 μL of 0.1 mM probe DiSC2(5) were added to a fluorescence cuvette, and mixed uniformly for detection. After the fluorescence response value became stable, the L. rhamnosus ZFM216 bacteriocin solution with a final concentration of 1×MIC was quickly added in the experimental group, and the same volume of fluorescence leakage buffer and 5% Triton X-100 solution were added to the control groups respectively.
Note: The preparation method of the fluorescent leakage buffer is: 0.7455 g of potassium chloride and 0.2463 g of a magnesium sulfate heptahydrate solution are accurately weighed, 22.5 mL of a 20% glucose solution and 10 mL of a phosphate buffer solution are measured, the volume is diluted to 100 mL with ultrapure water, the pH is adjusted to 7, and the prepared fluorescent leakage buffer is stored at 4° C. for later use.

For Triton X-100 [TritonX-100], the “fluorescence intensity of S. aureus D48 bacterial suspension (DiSC2(5))” value is listed as “rapidly increased to the highest value”.

The values above are taken from patent publication US11999769B2, “Method for isolating and purifying bacteriocin against drug-resistant Staphylococcus aureus” (Zhejiang Gongshang University, priority 2022, dated 2024).
